In one test the target is T1, MET D1228N (Homo sapiens, UniProt P08581, D1228N).
T1 construct: purchased Signalchem M52-12IG
Briefly: MET D1228N Mobility Shift Assay. As to conditions: biochemical assay IC50; 100 μM ATP, 60 minute kinase reaction. The method, boiled down: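 Enzyme at 0.313 nM preincubated 30 min at room temperature with 1.5 μM FAM-labelled peptide and 10 mM MgCl2 in HEPES buffer with DTT; reaction started with 100 μM ATP, run 60 min, stopped with EDTA. Substrate/product separated by microfluidic mobility shift; IC50 from inhibition of % conversion.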

Another test concerns the target T2, MET (Homo sapiens, UniProt P08581).
T2 construct: purchased Carna Biosciences 08-151
Briefly: MET Mobility Shift Assay. As to conditions: biochemical assay IC50; 100 μM ATP, 60 minute kinase reaction. The gist of the method:
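Recombinant MET at 0.625 nM was pre-incubated 30 min at room temperature with 1.5 μM FLPeptide30 and 10 mM MgCl2 in HEPES buffer with DTT. The reaction was started with 100 μM ATP, ran 60 min, and was stopped with EDTA. Microfluidic mobility-shift % conversion gave IC50.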

For another test, the target named is T3, Ba/F3-TPR-MET cells (Homo sapiens, UniProt P08581).
T3 construct: fused on or other part: P12270 (Nucleoprotein TPR)
Briefly: CellTiter-Glo Cell Viability Assay, Ba/F3-TPR-MET. The format is cell-based. As to conditions: 72 hours. The gist of the method:
(§1)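 Ba/F3 cells carrying TPR-MET or TPR-MET-D1228N, 3000 per well, were exposed for 72 h at 37 °C to 9-point 3-fold compound dilutions at 0.1% DMSO. Viability was read as ATP by CellTiter-Glo 2.0 luminescence, and IC50 values came from curve fitting.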

The target in test [1] is T4, Ba/F3-TPR-MET-D1228N cells (Homo sapiens, UniProt P08581, D1228N, cells depend on it).
T4 construct: fused on or other part: P12270 (Nucleoprotein TPR)
Briefly: CellTiter-Glo Cell Viability Assay, Ba/F3-TPR-MET-D1228N. As to conditions: 72 hours. The format is cell-based. The gist of the method: as §1

T2 sequence (P08581 25-1390): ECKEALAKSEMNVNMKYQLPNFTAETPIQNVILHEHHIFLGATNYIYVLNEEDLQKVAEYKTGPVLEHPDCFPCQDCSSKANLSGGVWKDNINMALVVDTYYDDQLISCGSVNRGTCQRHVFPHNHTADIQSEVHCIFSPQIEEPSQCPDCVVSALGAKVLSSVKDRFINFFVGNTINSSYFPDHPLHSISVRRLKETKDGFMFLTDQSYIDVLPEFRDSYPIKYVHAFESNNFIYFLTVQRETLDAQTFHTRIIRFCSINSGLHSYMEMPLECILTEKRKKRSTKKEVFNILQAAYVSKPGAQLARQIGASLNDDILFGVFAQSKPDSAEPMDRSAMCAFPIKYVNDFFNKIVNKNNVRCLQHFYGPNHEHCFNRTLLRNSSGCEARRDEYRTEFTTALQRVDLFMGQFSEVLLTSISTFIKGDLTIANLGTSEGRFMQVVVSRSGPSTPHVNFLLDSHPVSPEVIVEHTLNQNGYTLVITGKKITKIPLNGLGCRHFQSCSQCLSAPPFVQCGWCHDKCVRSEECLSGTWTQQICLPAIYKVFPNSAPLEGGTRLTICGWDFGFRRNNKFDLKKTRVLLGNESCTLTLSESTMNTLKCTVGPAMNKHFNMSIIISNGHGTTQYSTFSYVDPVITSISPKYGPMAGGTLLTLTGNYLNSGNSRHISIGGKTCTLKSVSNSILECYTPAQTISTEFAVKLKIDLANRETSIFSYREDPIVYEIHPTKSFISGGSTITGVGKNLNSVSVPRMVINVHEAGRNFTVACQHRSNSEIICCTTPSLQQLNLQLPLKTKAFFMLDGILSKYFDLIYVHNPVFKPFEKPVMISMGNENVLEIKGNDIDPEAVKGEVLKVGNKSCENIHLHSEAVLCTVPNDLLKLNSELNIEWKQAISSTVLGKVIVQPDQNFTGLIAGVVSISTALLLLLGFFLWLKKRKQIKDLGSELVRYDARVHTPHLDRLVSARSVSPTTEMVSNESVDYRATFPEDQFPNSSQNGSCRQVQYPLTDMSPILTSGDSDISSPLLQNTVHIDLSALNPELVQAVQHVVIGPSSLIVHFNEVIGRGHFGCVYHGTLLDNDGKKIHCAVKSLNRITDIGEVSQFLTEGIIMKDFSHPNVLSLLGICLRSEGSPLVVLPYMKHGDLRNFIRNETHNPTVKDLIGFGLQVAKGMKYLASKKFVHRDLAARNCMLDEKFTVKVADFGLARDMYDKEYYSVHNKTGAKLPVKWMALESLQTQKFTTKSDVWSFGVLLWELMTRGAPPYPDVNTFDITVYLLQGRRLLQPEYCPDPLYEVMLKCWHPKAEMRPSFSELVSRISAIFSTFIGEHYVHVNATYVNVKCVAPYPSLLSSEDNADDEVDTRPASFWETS
T4 sequence (P08581 whole entry D1228N, the tested form may be a part): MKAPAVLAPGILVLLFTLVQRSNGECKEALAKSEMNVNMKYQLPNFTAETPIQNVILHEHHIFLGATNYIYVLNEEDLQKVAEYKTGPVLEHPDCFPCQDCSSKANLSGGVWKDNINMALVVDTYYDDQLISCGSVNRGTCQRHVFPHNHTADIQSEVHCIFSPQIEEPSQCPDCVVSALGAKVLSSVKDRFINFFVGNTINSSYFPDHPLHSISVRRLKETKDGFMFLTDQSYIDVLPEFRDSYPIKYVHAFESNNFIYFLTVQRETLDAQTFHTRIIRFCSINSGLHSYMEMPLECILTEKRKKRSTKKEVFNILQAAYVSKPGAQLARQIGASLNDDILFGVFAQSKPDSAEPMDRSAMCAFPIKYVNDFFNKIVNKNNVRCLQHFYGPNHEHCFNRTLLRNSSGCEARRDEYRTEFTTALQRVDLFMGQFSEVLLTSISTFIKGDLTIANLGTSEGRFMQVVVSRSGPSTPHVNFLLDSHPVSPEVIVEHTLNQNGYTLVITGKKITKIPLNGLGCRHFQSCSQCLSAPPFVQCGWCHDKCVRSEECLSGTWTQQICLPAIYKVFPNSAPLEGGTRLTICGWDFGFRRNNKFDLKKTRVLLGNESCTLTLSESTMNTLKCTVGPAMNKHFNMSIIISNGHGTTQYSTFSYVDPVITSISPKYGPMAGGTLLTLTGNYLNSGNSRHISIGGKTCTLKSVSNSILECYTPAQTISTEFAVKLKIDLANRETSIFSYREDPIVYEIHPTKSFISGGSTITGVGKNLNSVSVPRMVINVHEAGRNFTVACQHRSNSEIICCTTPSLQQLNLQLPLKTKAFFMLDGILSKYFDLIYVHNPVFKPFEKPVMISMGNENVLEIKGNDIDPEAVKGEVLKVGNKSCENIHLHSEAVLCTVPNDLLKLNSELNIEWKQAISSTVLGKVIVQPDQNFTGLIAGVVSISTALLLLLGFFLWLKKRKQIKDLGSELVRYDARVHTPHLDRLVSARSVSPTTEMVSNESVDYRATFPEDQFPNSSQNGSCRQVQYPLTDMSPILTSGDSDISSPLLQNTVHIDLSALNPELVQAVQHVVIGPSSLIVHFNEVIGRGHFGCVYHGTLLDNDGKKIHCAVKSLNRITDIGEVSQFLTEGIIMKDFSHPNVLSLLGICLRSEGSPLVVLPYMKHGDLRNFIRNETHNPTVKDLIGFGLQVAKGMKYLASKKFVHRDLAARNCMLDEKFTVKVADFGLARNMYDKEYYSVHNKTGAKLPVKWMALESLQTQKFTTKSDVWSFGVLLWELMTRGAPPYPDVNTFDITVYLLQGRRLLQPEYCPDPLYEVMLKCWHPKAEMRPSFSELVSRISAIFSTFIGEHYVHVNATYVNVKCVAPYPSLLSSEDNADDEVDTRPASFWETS
T1 sequence (P08581 25-1390 D1228N): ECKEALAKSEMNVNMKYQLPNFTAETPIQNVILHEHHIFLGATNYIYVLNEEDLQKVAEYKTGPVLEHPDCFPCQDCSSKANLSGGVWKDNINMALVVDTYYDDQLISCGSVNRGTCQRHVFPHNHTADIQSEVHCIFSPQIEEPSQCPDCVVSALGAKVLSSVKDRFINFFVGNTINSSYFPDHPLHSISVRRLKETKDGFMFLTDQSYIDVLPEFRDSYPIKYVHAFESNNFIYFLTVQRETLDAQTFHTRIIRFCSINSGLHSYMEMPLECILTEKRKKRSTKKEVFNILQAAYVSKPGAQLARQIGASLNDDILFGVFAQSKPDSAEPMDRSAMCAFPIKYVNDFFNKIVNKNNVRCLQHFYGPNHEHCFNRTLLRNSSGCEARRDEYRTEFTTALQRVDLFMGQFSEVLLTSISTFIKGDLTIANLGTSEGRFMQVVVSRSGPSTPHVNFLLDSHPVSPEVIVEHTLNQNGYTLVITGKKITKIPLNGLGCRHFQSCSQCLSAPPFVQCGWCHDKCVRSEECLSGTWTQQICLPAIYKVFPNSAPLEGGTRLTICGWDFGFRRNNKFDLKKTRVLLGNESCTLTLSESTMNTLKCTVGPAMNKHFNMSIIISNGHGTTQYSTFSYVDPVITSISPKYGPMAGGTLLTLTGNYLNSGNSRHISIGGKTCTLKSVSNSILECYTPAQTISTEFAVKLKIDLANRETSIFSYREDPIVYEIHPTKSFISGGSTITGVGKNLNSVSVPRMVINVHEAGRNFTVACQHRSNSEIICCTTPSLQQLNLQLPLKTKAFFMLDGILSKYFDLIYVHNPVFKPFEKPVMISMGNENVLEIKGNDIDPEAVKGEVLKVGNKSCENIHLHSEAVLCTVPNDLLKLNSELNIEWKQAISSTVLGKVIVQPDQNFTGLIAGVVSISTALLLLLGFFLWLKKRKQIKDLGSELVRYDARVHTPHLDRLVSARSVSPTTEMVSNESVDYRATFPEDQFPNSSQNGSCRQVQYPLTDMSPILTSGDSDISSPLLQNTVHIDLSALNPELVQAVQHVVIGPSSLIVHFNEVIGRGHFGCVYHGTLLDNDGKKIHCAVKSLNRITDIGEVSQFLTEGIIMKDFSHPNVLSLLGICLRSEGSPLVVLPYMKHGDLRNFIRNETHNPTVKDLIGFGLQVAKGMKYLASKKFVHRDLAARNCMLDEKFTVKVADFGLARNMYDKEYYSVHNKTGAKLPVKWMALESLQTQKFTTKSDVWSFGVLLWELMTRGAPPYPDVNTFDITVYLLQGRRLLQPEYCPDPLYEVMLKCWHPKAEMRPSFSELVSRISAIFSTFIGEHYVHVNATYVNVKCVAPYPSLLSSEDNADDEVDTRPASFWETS

With `COc1cc2nccc(Oc3c(F)cc(NC(=O)c4cnccc4OCC(F)F)cc3F)c2cc1OCCO` [Example 143, N-(3,5-difluoro-4-((6-(2-hydroxyethoxy)-7-methoxyquinolin-4-yl)oxy)phenyl)-4-(2,2-difluoroethoxy)pyridine-3-carboxamide], the IC50 on MET D1228N and at MET was no more than 100 nM throughout. In addition, the EC50 (on Ba/F3-TPR-MET cells; in test [1]) was no more than 100 nM throughout.
As to `COc1cc2nccc(Oc3c(F)cc(NC(=O)c4cnccc4OC)cc3F)c2cc1O[C@H](C)CO` [Example 131, (R)-N-(3,5-difluoro-4-{[6-((1-hydroxypropan-2-yl)oxy)-7-methoxyquinolin-4-yl]oxy}phenyl)-4-methoxypyridine-3-carboxamide], the IC50 at MET D1228N and on MET was no more than 100 nM in each case. The EC50 (at Ba/F3-TPR-MET cells; in test [1]) was no more than 100 nM in each case.
For `COCCOc1ccc2c(Oc3c(F)cc(NC(=O)c4nnccc4OC4CC4)cc3F)ccnc2c1` [Example 120, 4-cyclopropoxy-N-(3,5-difluoro-4-((7-(2-methoxyethoxy)quinolin-4-yl)oxy)phenyl)pyridazine-3-carboxamide], the IC50 at MET D1228N and at MET was no more than 100 nM throughout. The EC50 (on Ba/F3-TPR-MET cells; in test [1]) was 100 to 1000 nM throughout.
With `COc1cc2nccc(Oc3c(F)cc(NC(=O)c4cnccc4OC4CC4)cc3F)c2cc1O[C@@H](C)CO` [Example 129, (S)-4-cyclopropoxy-N-(3,5-difluoro-4-((6-((1-hydroxypropan-2-yl)oxy)-7-methoxyquinolin-4-yl)oxy)phenyl)nicotinamide], the IC50 on MET D1228N and at MET was no more than 100 nM throughout. Moreover, the EC50 (on Ba/F3-TPR-MET cells; in test [1]) was no more than 100 nM in each case.
On to `CNCCOc1cc2nccc(Oc3c(F)cc(NC(=O)c4cccnc4OC4CC4)cc3F)c2cc1OC` [Example 78, 2-cyclopropoxy-N-[3,5-difluoro-4-({6-methoxy-7-[2-(methylamino)ethoxy]quinolin-4-yl}oxy)phenyl]pyridine-3-carboxamide], for which the IC50 on MET D1228N and on MET was no more than 100 nM in each case. Further, the EC50 (at Ba/F3-TPR-MET cells; in test [1]) was 100 to 1000 nM each time.
Consider `CNCCOc1cc2ncnc(Oc3c(F)cc(NC(=O)c4cnccc4OC)cc3F)c2cc1OC` [Example 8, N-(3,5-difluoro-4-((6-methoxy-7-(2-(methylamino)ethoxy)quinazolin-4-yl)oxy)phenyl)-4-methoxypyridine-3-carboxamide], for which the IC50 on MET D1228N and on MET was no more than 100 nM each time. Further, the EC50 (on Ba/F3-TPR-MET cells; in test [1]) was 100 to 1000 nM in each case.
With `CNCCOc1ccc2c(Oc3c(F)cc(NC(=O)c4cccnc4OC4CC4)cc3F)ccnc2c1` [Example 79, 2-cyclopropoxy-N-[3,5-difluoro-4-({7-[2-(methylamino)ethoxy]quinolin-4-yl}oxy)phenyl]pyridine-3-carboxamide], the IC50 at MET D1228N and on MET was no more than 100 nM in each case. Moreover, the EC50 (at Ba/F3-TPR-MET cells; in test [1]) was 100 to 1000 nM throughout.
On to `CNCCOc1ccc2c(Oc3c(F)cc(NC(=O)c4cnccc4OC4CC4)cc3F)ccnc2c1` [Example 87, 4-cyclopropoxy-N-[3,5-difluoro-4-({7-[2-(methylamino)ethoxy]quinolin-4-yl}oxy)phenyl]pyridine-3-carboxamide], for which the IC50 at MET D1228N and on MET was no more than 100 nM throughout. The EC50 (at Ba/F3-TPR-MET cells; in test [1]) was no more than 100 nM each time.
In the case of `COc1cc2c(Oc3c(F)cc(NC(=O)c4cnccc4OC4CC4)cc3F)ccnc2cc1OCCO` [Example 97, 4-cyclopropoxy-N-(3,5-difluoro-4-{[7-(2-hydroxyethoxy)-6-methoxyquinolin-4-yl]oxy}phenyl)pyridine-3-carboxamide], the IC50 at MET D1228N and at MET was no more than 100 nM in each case. The EC50 (at Ba/F3-TPR-MET cells; in test [1]) was no more than 100 nM in each case.
For the compound `COC[C@H](C)Oc1cc2c(Oc3c(F)cc(NC(=O)c4cnccc4OC)cc3F)ccnc2cc1OC` [Example 128, (S)-N-(3,5-difluoro-4-((7-methoxy-6-((1-methoxypropan-2-yl)oxy)quinolin-4-yl)oxy)phenyl)-4-methoxynicotinamide], the IC50 on MET D1228N and at MET was no more than 100 nM throughout. For the same compound, the EC50 (at Ba/F3-TPR-MET cells; in test [1]) was no more than 100 nM each time.
`COc1cc2c(Oc3c(F)cc(NC(=O)c4cnccc4OC)cc3F)ccnc2cc1OCCN1CCOCC1` [Example 29, N-[3,5-difluoro-4-({6-methoxy-7-[2-(morpholin-4-yl)ethoxy]quinolin-4-yl}oxy)phenyl]-4-methoxypyridine-3-carboxamide]: the IC50 at MET D1228N and on MET was no more than 100 nM throughout. Also, the EC50 (at Ba/F3-TPR-MET cells; in test [1]) was no more than 100 nM throughout.
As to `CNCCOc1cc2nccc(Oc3c(F)cc(NC(=O)c4cnccc4OC4CCC4)cc3F)c2cc1OC` [Example 55, 4-cyclobutoxy-N-(3,5-difluoro-4-((6-methoxy-7-(2-(methylamino)ethoxy)quinolin-4-yl)oxy)phenyl)pyridine-3-carboxamide], the IC50 at MET D1228N and on MET was no more than 100 nM each time. The figures for the EC50 (at Ba/F3-TPR-MET cells; in test [1]) were 100 to 1000 nM and no more than 100 nM, respectively.
For `CNCCOc1ccc2c(Oc3c(F)cc(NC(=O)c4cnccc4OC)cc3F)ccnc2c1` [Example 10, N-(3,5-difluoro-4-((7-(2-(methylamino)ethoxy)quinolin-4-yl)oxy)phenyl)-4-methoxypyridine-3-carboxamide], the concentration for half-maximal inhibition (IC50) at MET D1228N and at MET was no more than 100 nM in each case. Also, the EC50 (on Ba/F3-TPR-MET cells; in test [1]) was no more than 100 nM each time.
`CCNCCOc1cc2nccc(Oc3c(F)cc(NC(=O)c4cnccc4OC4CC4)cc3F)c2cc1OC` [Example 75, 4-cyclopropoxy-N-[4-({7-[2-(ethylamino)ethoxy]-6-methoxyquinolin-4-yl}oxy) -3,5-difluorophenyl]pyridine-3-carboxamide]: the IC50 on MET D1228N and at MET was no more than 100 nM each time. In addition, the EC50 (at Ba/F3-TPR-MET cells; in test [1]) was no more than 100 nM each time.
`COc1cc2nccc(Oc3c(F)cc(NC(=O)c4cnccc4OC)cc3F)c2cc1OCCO` [Example 122, N-(3,5-difluoro-4-{[6-(2-hydroxyethoxy)-7-methoxyquinolin-4-yl]oxy}phenyl)-4-methoxypyridine-3-carboxamide]: the IC50 on MET D1228N and at MET was no more than 100 nM each time. In addition, the EC50 (at Ba/F3-TPR-MET cells; in test [1]) was no more than 100 nM each time.
`CCOc1ccncc1C(=O)Nc1ccc(Oc2ccnc3cc(OCCNC)c(OC)cc23)c(F)c1F` [Example 16, N-(2,3-difluoro-4-((6-methoxy-7-(2-(methylamino)ethoxy)quinolin-4-yl)oxy)phenyl)-4-ethoxypyridine-3-carboxamide]: the IC50 on MET D1228N and at MET was no more than 100 nM each time. Also, the EC50 (at Ba/F3-TPR-MET cells; in test [1]) was 100 to 1000 nM in each case.
Turning to `COCCOc1cc2nccc(Oc3c(F)cc(NC(=O)c4cnccc4OC4CC4)cc3F)c2cc1OC` [Example 106, 4-cyclopropoxy-N-(3,5-difluoro-4-{[6-methoxy-7-(2-methoxyethoxy)quinolin-4-yl]oxy}phenyl)pyridine-3-carboxamide], the IC50 on MET D1228N and at MET was no more than 100 nM in each case. In addition, the EC50 (at Ba/F3-TPR-MET cells; in test [1]) was no more than 100 nM each time.

Source of the values: patent US11753395B2 (Kinnate Biopharma Inc., priority 2021, dated 2023).
